# Experimental data as given in patent publication US9072729B2, “Method for treating fibrosis and cancer with imidazolium and imidazolinium compounds” (Agency for Science, Technology and Research, priority 2008, dated 2015).
# Where two headings read alike, the source gives them in different places.
# Experiments:
# Assay type in all cases: cell-based, rat
# HSC T6 cells = experiment: MTS based proliferation assay (cytotoxicity) on cultured HSC-T6 cells; conditions: read-out: IC50 (toxicity on T6 cells)
# Description: FIG. 1. Cytotoxicity of (a) DBZIM and (b) TDBZIM. […] The signal was normalized against a vehicle control treatment (0 μM of compound). The data were obtained from four independent experiments, and presented as mean and standard error or mean (SEM), *^aP<0.05, *^bP<0.01 and *^cP<0.005.
# Firstly we assessed the cytotoxicity of DBZIM and TDBZIM on cultured HSC-T6 cells using a 3-(4,5-dimethylthiazol-2-yl)-5-(3-carboxymethoxyphenyl)-2-(4-sulfophenyl)-2H-tetrazolium (MTS) based proliferation assay kit (Promega, Wis., USA). […]
# col1a1 = experiment: Real-time RT-PCR of col1a1 mRNA in HSC T6 cells; conditions: 48 h; DBIM 1 mM, DPIM 2 mM, TMPHIM 50 μM, DPPHIM 10 μM
# Description: (§1) FIG. 6. (a) DBZIM and (b) TDBZIM suppressed the mRNA expression of HSC activation markers (GFAP and SMAA) and fibrotic endpoints (col1a1 and fibronectin) in a dosage-dependent manner. […] The ΔΔCt method was used for relative quantification with vehicle control sample being the calibrator. The data were presented as mean and SEM, N=6, *^aP<0.05, *^bP<0.01, *^cP<0.005, and *^dP<0.0005, when compared to the vehicle control. FIG. 7. DBZIM (100 μM) and TDBZIM (100 μM) suppressed (a) GFAP, (b) SMAA, (c) col1a1 and (d) fibronectin mRNA expression in a time-dependent manner. HSC T6 cells were treated with DBZIM and TDBZIM, and assayed after 8, 24 and 48 h. […] FIG. 14. […] (50 μM), […] (50 μM), […] (10 μM) and DBZBIM (100 μM) were dissolved in DMSO with a final DMSO concentration of 0.2% (v/v). DPIM (2 mM), EGCG (25 μM) and DBZIM (100 μM) were dissolved in H2O. β-actin was used as the normalization gene; its expression was constant under the experimental conditions. Relative quantification was normalized against the respective vehicle control. The data were presented as mean and SEM, N=6, *^aP<0.05, *^cP<0.005, and *^dP<0.0005, when compared to the vehicle control. Total RNA was isolated using NucleoSpin RNAII isolation kit ([…], Germany), and quantified by ND-100 spectrophotometer (Nanodrop Technologies, DE, USA). The details of real-time RT-PCR were reported elsewhere (Zhang et al. 2006). Briefly, it was a two-step real-time RT-PCR using Taqman chemistry. Total RNA was first reverse transcribed to cDNA, and real-time PCR was run and detected in ABI 7500 Fast Real-Time PCR System (Applied Biosystems, CA, USA). Primers and probes for rat GFAP, SMAA, collagen Ia1, fibronectin, TGF-β1, TGF-β receptor I (TGFβ RI) and IL-6 were ordered from Taqman's assay-on-demand database. Rat β-actin was used as normalization gene, and its expression level was constant (CT difference was <±0.5) throughout the experimental settings in this study. Relative quantification of target mRNA was calculated using comparative threshold cycle method (ΔΔCT) as described in User Bulletin #2 (ABI Prism 7700 Sequence Detection System). Relative quantification was given by 2^-ΔΔCT to express the up-regulation or down regulation of the target gene under the treatments compared to the control.
# SMAA = experiment: Real-time RT-PCR of SMAA mRNA in HSC T6 cells; conditions: 48 h; DBIM 1 mM, DPIM 2 mM, AMIM 50 μM, TMPHIM 50 μM
# Description: as §1
# GFAP = experiment: Real-time RT-PCR of GFAP mRNA in HSC T6 cells; conditions: 48 h; DPIM 2 mM, AMIM 50 μM, TMPHIM 50 μM, DBZBIM 100 μM
# Description: as §1
# fibronectin = experiment: Real-time RT-PCR of fibronectin mRNA in HSC T6 cells; conditions: 48 h; DPIM 2 mM, TMPHIM 50 μM, DBZIM 100 μM
# Description: as §1
# GPx = experiment: Glutathione peroxidase (GPx) activity assay in treated cells
# Description: (§2) FIG. 4. Effect of DBZIM and TDBZIM on GPx, CAT, SOD and GST. DBZIM affected (a) GPx activity and (c) CAT activity in a dosage-dependent manner. TDBZIM suppressed (b) GPx activity and (d) CAT activity. (e) DBZIM and (f) TDBZIM had little effect on SOD activity. (g) DBZIM induced GST activity. HSC T6 cells were treated with compounds of various concentrations for 48 h, and homogenized by sonication (60% frequency for 30 s) in PBS (pH 7.4, 1 mM of EDTA) for GPx, GST and CAT assays, or in 20 mM of HEPES buffer containing 1 mM of EGTA, 210 mM of mannitol and 70 mM of sucrose (pH 7.2) for SOD assay. Enzyme activity was normalized against total protein. DBZIM was dissolved in DMSO, and TDBZIM was dissolved in H2O. The data were presented as mean and SEM, N=6, *^aP<0.05, *^bP<0.01, *^cP<0.005, and *^dP<0.0005, when compared to the vehicle control.
# (§3) Activity levels of three anti-oxidant enzymes, GPx, CAT and SOD, were determined using assay kits from Cayman Chemical. To assay GPx and CAT activities, protein samples were harvested in ice-cold PBS containing 1 mM of EDTA. To assay SOD activity, protein samples were prepared in 20 mM of N-(2-hydroxyethyl)-piperazine-N′-2-ethanesulfonic acid (HEPES) buffer containing 1 mM of ethylene glycol-bis(2-aminoethylether)-N,N,N′,N′-tetraacetic acid (EGTA), 210 mM of mannitol and 70 mM of sucrose. Protein content was determined by BCA assay.
# GPx activity was indirectly measured by a coupled reaction with GSH reductase. Oxidized GSH, produced upon reduction of H2O2 by GPx, is recycled to its reduced state by glutathione reductase (GR) and nicotinamide adenine dinucleotide phosphate (NADPH). The oxidation of NAPDH is proportional to the GPx activity, and can be measured as a decrease in absorbance at 340 nm. GPx activity was expressed as nmol/min/mg protein.
# CAT = experiment: Catalase (CAT) activity assay in treated cells
# Description: FIG. 4. […] Enzyme activity was normalized against total protein. DBZIM was dissolved in DMSO, and TDBZIM was dissolved in H2O. The data were presented as mean and SEM, N=6, *^aP<0.05, *^bP<0.01, *^cP<0.005, and *^dP<0.0005, when compared to the vehicle control.
# Activity levels of three anti-oxidant enzymes, GPx, CAT and SOD, were determined using assay kits from Cayman Chemical. To assay GPx and CAT activities, protein samples were harvested in ice-cold PBS containing 1 mM of EDTA. […] Protein content was determined by BCA assay.
# CAT activity was determined based on reaction of the enzyme with methanol in the presence of H2O2. The formaldehyde produced was measured spectrophotometrically at 540 nm using Purpald as the chromogen. CAT activity was expressed as nmol/min/mg protein.
# HSC-T6 cells [1] = experiment: Glutathione (GSH) and GSSG assays
# Description: FIG. 3. […] (c) DBZIM and (d) TDBZIM both suppressed cellular GSSG (the oxidation product of GSH). (e) DBZIM and (f) TDBZIM both enhanced the GSH/GSSG ratio. HSC-T6 cells were incubated with compounds of various concentrations for 48 h, and assayed for the total GSH and GSSG amounts. The GSH/GSSG ratio was calculated as (GSH−GSSG)/GSSG. The GSH and GSSG amounts were normalized against the total protein. Note that DBZIM was dissolved in DMSO, and TDBZIM was dissolved in H2O. The data were presented as mean and SEM, N=6, *^aP<0.05, *^bP<0.01, *^cP<0.005, and *^dP<0.0005, when compared to the vehicle control.
# Total cellular GSH and GSSG levels were determined by using assay kits from Cayman Chemical (Ann Arbor, Mich., USA) following the manufacturer's instructions. Briefly, HSC-T6 cells treated with DBZIM, TDBZIM, NAC, or EGCG were scalped and homogenized in phosphate buffered saline (PBS) by sonication at 60% frequency for 30 s, and the supernatant was collected after centrifugation at 16,000×g for 10 min at 4° C. Protein content of the samples was determined by bicinchonicic acid (BCA) assay.
# For GSH assays, the protein sample was deproteinated by metaphosphoric acid (Aldrich, Catalog No. 23927-5), and the pH was adjusted by triethanolamine (Aldrich, Catalog No. T5830-0) according to the manual. The sample was ready for assaying total GSH including both the reduced and oxidized forms. Quantification of GSSG, exclusive of GSH, was performed by first derivatizing GSH with 2-vinylpyridine and assaying separately. Colorimetric signal was recorded at 405 nm with a Tecan Safire II plate reader. The levels of GSH or GSSG were determined as nmol/μg protein.
# SOD = experiment: Superoxide dismutase (SOD) activity assay in treated cells
# Description: as §2, §3
# Total SOD, including all three types of SOD (Cu/Zn-, Mn- and Fe-SOD), was quantified using a tetrazolium salt to detect superoxide radicals generated by xanthine oxidase and hyposanthine. […] SOD activity was expressed as U/mg protein.
# GST = experiment: Glutathione S-transferase (GST) assay in treated cells; conditions: EGCG, NAC
# Description: as §2
# The activity of phase II anti-oxidant enzyme, GST, was assayed using a kit from Cayman Chemical. Protein samples were harvested in PBS buffer containing 1 mM of EDTA, and the protein concentration was determined by BCA assay. Total GST (cytosolic and microsomal) activity was assayed by measuring the conjugation of 1-chloro-2,4-dinitobenzene (CDNB) with reduced GSH, and monitored by an increase in absorbance at 340 nm. GST activity was expressed as nmol/min/mg protein.
# HSC-T6 cells [2] = experiment: Cellular ROS determination (DCF labeling); conditions: EGCG 25 μM, NAC 1 mM, 48 h
# Description: FIG. 2. (a) DBZIM and (b) TDBZIM attenuated cellular ROS level. HSC T6 cells were incubated with DBZIM (10, 50, 100 and 300 μM), TDBZIM (10, 50 and 100 μM), NAC (1 mM) and EGCG (25 μM) for 48 h before assaying for cellular ROS levels. The data were presented as relative values after normalizing against a vehicle control. The data were presented as mean and SEM, N=6, *^bP<0.01, *^cP<0.005, and *^dP<0.0005 when compared to the vehicle, control.
# The ROS level of treated HSC-T6 cells was determined using the dichlorofluorescein (DCF) labeling method (Molecular Probes Inc., OR, USA). Cultured cells were harvested by trypsinization, and resuspended in phenol red-free DMEM (Invitrogen). Cells were then incubated with 10 μg/ml of 2′,7′-dichloro-fluorescein diacetate (DCFH-DA) in DMEM for 15 min before resuspension in DMEM for assaying. Cell solution was dispensed into a black-wall 96-well pate in triplicate for fluorescence readout at Ex=485 nm and Em=530 nm with a Tecan Safire II plate reader. The fluorescence unit was normalized against viable cell numbers, which were determined using 3-(4,5-dimethylthiazol-2-yl)-2,5-diphenyl tetrazolium bromide (MTT assay, Promega, Wis., USA). Cellular ROS level was expressed relative to the control sample.
# [3] = Rattus norvegicus, HSC-T6, HSC T6 cells
molecule,measurement,setting,value
"1,3-bis(2,6-diisopropyl-phenyl)-imidazolinium chloride [DPPHIM]",IC50,HSC T6 cells; HSC T6 cells,34 µM
same,suppression of col1a1 mRNA,col1a1,47%
"1,3-bis(2,4,6-trimethylphenyl)-imidazolinium chloride [TMPHIM]",suppression of SMAA mRNA,SMAA,49%
same,IC50,HSC T6 cells; HSC T6 cells,110 µM
same,suppression of GFAP mRNA,GFAP,66%
same,suppression of col1a1 mRNA,col1a1,62%
same,suppression of fibronectin mRNA,fibronectin,29%
"C[S+](C)[O-] [DMSO, dimethylsulfoxide]","GPx activity, of the control",GPx; 0.2% (v/v) DMSO vs untreated,2.62 times
same,"CAT activity, of the control",CAT; 0.2% (v/v) DMSO vs untreated,1.7 fold
same,"GSH/GSSG ratio, of the control",HSC-T6 cells [1]; 0.2% (v/v) DMSO vs untreated,17%
same,"GSSG amount, of the control",HSC-T6 cells [1]; 0.2% (v/v) DMSO vs untreated,4.4 fold
same,"total cellular GSH level, of the control",HSC-T6 cells [1]; 0.2% (v/v) DMSO vs untreated,74%
same,increase of SOD activity,"SOD; 0.2% (v/v) DMSO vs untreated, not statistically significant",10%
"CC(=O)N[C@@H](CS)C(=O)O [NAC, N-acetyl-L-cysteine, reference compound]",effect on GST activity (references),GST,did not have much affect
same,attenuation of GPx activity (references),"GPx; EGCG 25 μM, NAC 5 mM",did not show much effect
same,attenuation of cellular ROS level (references),HSC-T6 cells [2],did not show apparent inhibition
same,suppression of CAT activity (references),"CAT; EGCG, NAC (FIG. 4c)",35%
same,reduction of GSSG (references),"HSC-T6 cells [1]; EGCG 25 μM, NAC 5 mM, 48 h",had no effect
same,increase in GSH/GSSG ratio (references),"HSC-T6 cells [1]; NAC 5 mM, EGCG 25 μM, 48 h",no change
same,induction of total GSH (references),"HSC-T6 cells [1]; NAC 5 mM, EGCG 25 μM, 48 h",did not show any effect
same,effect on SOD activity,"SOD; HSC T6 cells, 48 h",did not show much effect
"F[B-](F)(F)F.c1c[n+](C23CC4CC(CC(C4)C2)C3)cn1C12CC3CC(CC(C3)C1)C2 [AMIM, 1,3-bis(1-adamantyl)imidazolium tetrafluoroborate]",suppression of SMAA mRNA,SMAA,23%
same,IC50,HSC T6 cells; [3],166 µM
same,suppression of GFAP mRNA,GFAP,69%
"1,3-di-tert-butylimidazoliniumtetrafluoroborate [DBIM]",suppression of SMAA mRNA,SMAA,49%
same,IC50,HSC T6 cells; HSC T6 cells,2000 to 3000 µM
same,suppression of col1a1 mRNA,col1a1,58%
"[Br-].c1ccc(Cn2c[n+](Cc3ccccc3)c3ccccc32)cc1 [DBZBIM, 1,3-bisbenzyl-benzimidazolium bromide]",IC50,HSC T6 cells; [3],310 µM
same,suppression of GFAP mRNA,GFAP,50%
